From PubChem BioAssay (NCI)
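48-hour exposure; five concentrations; linearly interpolated endpoints. GI50: concentration for 50% inhibition of growth. TGI denotes the concentration required for complete inhibition of growth.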

How the values were obtained:
Assay in all cases: growth of human tumour cells (NCI), 48 h
786-0 renal = tested on: 786-0 renal
A498 renal = tested on: A498 renal
A549 NSCLC = tested on: A549 NSCLC
ACHN renal = tested on: ACHN renal
BT-549 breast = tested on: BT-549 breast
CAKI-1 renal = tested on: CAKI-1 renal
CCRF-CEM leukemia = tested on: CCRF-CEM leukemia
COLO 205 colon = tested on: COLO 205 colon
DU-145 prostate = tested on: DU-145 prostate
EKVX NSCLC = tested on: EKVX NSCLC
HCC-2998 colon = tested on: HCC-2998 colon
HCT-116 colon = tested on: HCT-116 colon
HCT-15 colon = tested on: HCT-15 colon
HL-60(TB) leukemia = tested on: HL-60(TB) leukemia
HOP-62 NSCLC = tested on: HOP-62 NSCLC
HOP-92 NSCLC = tested on: HOP-92 NSCLC
HS 578T breast = tested on: HS 578T breast
HT29 colon = tested on: HT29 colon
IGROV1 ovarian = tested on: IGROV1 ovarian
K-562 leukemia = tested on: K-562 leukemia
KM12 colon = tested on: KM12 colon
LOX IMVI melanoma = tested on: LOX IMVI melanoma
M14 melanoma = tested on: M14 melanoma
MALME-3M melanoma = tested on: MALME-3M melanoma
MCF7 breast = tested on: MCF7 breast
MDA-MB-231 breast = tested on: MDA-MB-231 breast
MDA-MB-435 = tested on: MDA-MB-435
MOLT-4 leukemia = tested on: MOLT-4 leukemia
NCI-H226 lung = tested on: NCI-H226 lung
NCI-H23 lung = tested on: NCI-H23 lung
NCI-H460 lung = tested on: NCI-H460 lung
NCI-H522 lung = tested on: NCI-H522 lung
NCI/ADR-RES ovarian = tested on: NCI/ADR-RES ovarian
OVCAR-3 ovarian = tested on: OVCAR-3 ovarian
OVCAR-4 ovarian = tested on: OVCAR-4 ovarian
OVCAR-5 ovarian = tested on: OVCAR-5 ovarian
OVCAR-8 ovarian = tested on: OVCAR-8 ovarian
PC-3 prostate = tested on: PC-3 prostate
RPMI-8226 leukemia = tested on: RPMI-8226 leukemia
RXF 393 renal = tested on: RXF 393 renal
SF-268 CNS = tested on: SF-268 CNS
SF-295 CNS = tested on: SF-295 CNS
SF-539 CNS = tested on: SF-539 CNS
SK-MEL-2 melanoma = tested on: SK-MEL-2 melanoma
SK-MEL-28 melanoma = tested on: SK-MEL-28 melanoma
SK-MEL-5 melanoma = tested on: SK-MEL-5 melanoma
SK-OV-3 ovarian = tested on: SK-OV-3 ovarian
SN12C renal = tested on: SN12C renal
SNB-19 CNS = tested on: SNB-19 CNS
SNB-75 CNS = tested on: SNB-75 CNS
SR leukemia = tested on: SR leukemia
SW-620 colon = tested on: SW-620 colon
T-47D breast = tested on: T-47D breast
TK-10 renal = tested on: TK-10 renal
U251 CNS = tested on: U251 CNS
UACC-257 melanoma = tested on: UACC-257 melanoma
UACC-62 melanoma = tested on: UACC-62 melanoma
UO-31 renal = tested on: UO-31 renal

SMILES: CCCCN(CCCC)CC(O)c1ccc(OCc2ccccc2)c2ccccc12 (stereo unspecified)
- GI50 (786-0 renal): 2.56 µM
- TGI (786-0 renal): 6.25 µM
- GI50 (A498 renal): 3.41 µM
- TGI (A498 renal): 14.5 µM
- GI50 (A549 NSCLC): 8.45 µM
- TGI (A549 NSCLC): 22.4 µM
- GI50 (ACHN renal): 4.76 µM
- TGI (ACHN renal): 18 µM
- GI50 (BT-549 breast): 5.32 µM
- TGI (BT-549 breast): 17.2 µM
- GI50 (CAKI-1 renal): 1.98 µM
- TGI (CAKI-1 renal): 10.9 µM
- GI50 (CCRF-CEM leukemia): 3.35 µM
- TGI (CCRF-CEM leukemia): 16.3 µM
- GI50 (COLO 205 colon): 2.98 µM
- TGI (COLO 205 colon): 12.1 µM
- GI50 (DU-145 prostate): 8.63 µM
- TGI (DU-145 prostate): 22.6 µM
- GI50 (EKVX NSCLC): 5.66 µM
- TGI (EKVX NSCLC): 20.2 µM
- GI50 (HCC-2998 colon): 2.36 µM
- TGI (HCC-2998 colon): 6.34 µM
- GI50 (HCT-116 colon): 2.84 µM
- TGI (HCT-116 colon): 11.7 µM
- GI50 (HCT-15 colon): 2.58 µM
- TGI (HCT-15 colon): 7.47 µM
- GI50 (HL-60(TB) leukemia): 2.51 µM
- TGI (HL-60(TB) leukemia): 8.25 µM
- GI50 (HOP-62 NSCLC): 5.57 µM
- TGI (HOP-62 NSCLC): 19.7 µM
- GI50 (HOP-92 NSCLC): 1.87 µM
- TGI (HOP-92 NSCLC): 6.27 µM
- GI50 (HS 578T breast): 4.99 µM
- TGI (HS 578T breast): 30.9 µM
- GI50 (HT29 colon): 1.52 µM
- TGI (HT29 colon): 4.55 µM
- GI50 (IGROV1 ovarian): 1.96 µM
- TGI (IGROV1 ovarian): 16.7 µM
- GI50 (K-562 leukemia): 2.82 µM
- TGI (K-562 leukemia): 10.4 µM
- GI50 (KM12 colon): 3.4 µM
- TGI (KM12 colon): 19.5 µM
- GI50 (LOX IMVI melanoma): 1.94 µM
- TGI (LOX IMVI melanoma): 4.78 µM
- GI50 (M14 melanoma): 3.13 µM
- TGI (M14 melanoma): 11.4 µM
- GI50 (MALME-3M melanoma): 2.27 µM
- TGI (MALME-3M melanoma): 7.09 µM
- GI50 (MCF7 breast): 3.19 µM
- TGI (MCF7 breast): 10.9 µM
- GI50 (MDA-MB-231 breast): 2.28 µM
- TGI (MDA-MB-231 breast): 7.92 µM
- GI50 (MDA-MB-435): 3.17 µM
- TGI (MDA-MB-435): 14 µM
- GI50 (MOLT-4 leukemia): 3.54 µM
- TGI (MOLT-4 leukemia): 16.5 µM
- GI50 (NCI-H226 lung): 4.03 µM
- TGI (NCI-H226 lung): 16.7 µM
- GI50 (NCI-H23 lung): 3.01 µM
- TGI (NCI-H23 lung): 13 µM
- GI50 (NCI-H460 lung): 3.11 µM
- TGI (NCI-H460 lung): 10.5 µM
- GI50 (NCI-H522 lung): 1.72 µM
- TGI (NCI-H522 lung): 4.37 µM
- GI50 (NCI/ADR-RES ovarian): 3.74 µM
- TGI (NCI/ADR-RES ovarian): 16 µM
- GI50 (OVCAR-3 ovarian): 4.9 µM
- TGI (OVCAR-3 ovarian): 18.3 µM
- GI50 (OVCAR-4 ovarian): 6.22 µM
- TGI (OVCAR-4 ovarian): 17.4 µM
- GI50 (OVCAR-5 ovarian): 3.86 µM
- TGI (OVCAR-5 ovarian): 16.2 µM
- GI50 (OVCAR-8 ovarian): 11 µM
- TGI (OVCAR-8 ovarian): 24.4 µM
- GI50 (PC-3 prostate): 2.9 µM
- TGI (PC-3 prostate): 15.6 µM
- GI50 (RPMI-8226 leukemia): 2.22 µM
- TGI (RPMI-8226 leukemia): 5.81 µM
- GI50 (RXF 393 renal): 2.39 µM
- TGI (RXF 393 renal): 4.93 µM
- GI50 (SF-268 CNS): 7.07 µM
- TGI (SF-268 CNS): 24.2 µM
- GI50 (SF-295 CNS): 3.13 µM
- TGI (SF-295 CNS): 11.6 µM
- GI50 (SF-539 CNS): 5.09 µM
- TGI (SF-539 CNS): 17 µM
- GI50 (SK-MEL-2 melanoma): 3.39 µM
- TGI (SK-MEL-2 melanoma): 12 µM
- GI50 (SK-MEL-28 melanoma): 6.08 µM
- TGI (SK-MEL-28 melanoma): 18.8 µM
- GI50 (SK-MEL-5 melanoma): 1.88 µM
- TGI (SK-MEL-5 melanoma): 3.69 µM
- GI50 (SK-OV-3 ovarian): 8.31 µM
- TGI (SK-OV-3 ovarian): 22.7 µM
- GI50 (SN12C renal): 3.25 µM
- TGI (SN12C renal): 14.9 µM
- GI50 (SNB-19 CNS): 3.79 µM
- TGI (SNB-19 CNS): 16.3 µM
- GI50 (SNB-75 CNS): 3.6 µM
- TGI (SNB-75 CNS): 15.8 µM
- GI50 (SR leukemia): 2.75 µM
- TGI (SR leukemia): 8.4 µM
- GI50 (SW-620 colon): 3.32 µM
- TGI (SW-620 colon): 14.5 µM
- GI50 (T-47D breast): 3.74 µM
- TGI (T-47D breast): 14.9 µM
- GI50 (TK-10 renal): 2.15 µM
- TGI (TK-10 renal): 5.24 µM
- GI50 (U251 CNS): 4.88 µM
- TGI (U251 CNS): 17.1 µM
- GI50 (UACC-257 melanoma): 5.21 µM
- TGI (UACC-257 melanoma): 17.2 µM
- GI50 (UACC-62 melanoma): 2.33 µM
- TGI (UACC-62 melanoma): 11.2 µM
- GI50 (UO-31 renal): 0.974 µM
- TGI (UO-31 renal): 7.13 µM
